`*/C=C(/*)CCCOc1ccc(OC(=O)c2ccc(OCCCCCCCC)cc2)cc1` (repeat unit): the glass transition temperature was 42.00 °C.

`*C(=O)Nc1ccc(-c2cc(-c3ccccc3)cc(-c3ccc(NC(=O)c4ccc5c(c4)C(=O)N(c4ccc(NC(=O)Nc6ccc(N7C(=O)c8ccc(*)cc8C7=O)cc6)cc4)C5=O)cc3)n2)cc1` (repeat unit) gave a glass transition temperature of 215.00 °C.

The molecule `*C(=O)Nc1ccc(-c2ccc(NC(=O)c3ccc4c(c3)C(=O)N(c3ccc(NC(=O)Nc5ccc(N6C(=O)c7ccc(*)cc7C6=O)cc5)cc3)C4=O)cc2)cc1` (repeat unit) came in with a glass transition temperature of 233.00 °C.

The molecule `*C(=O)Nc1ccc(C(c2ccc(NC(=O)c3ccc4c(c3)C(=O)N(c3ccc(Oc5ccc6ccc(Oc7ccc(N8C(=O)c9ccc(*)cc9C8=O)cc7)cc6c5)cc3)C4=O)cc2)(C(F)(F)F)C(F)(F)F)cc1` (repeat unit) registered a glass transition temperature of 292.00 °C.

Regarding `*C(=O)Nc1ccc(C2(c3ccc(N4C(=O)c5ccc(*)cc5C4=O)cc3)CCCCC2)cc1` (repeat unit), the glass transition temperature stood at 319.00 °C.

For the molecule `*C(=O)Nc1ccc(Cc2ccc(N3C(=O)CC(N4C(=O)c5ccc(*)cc5C4=O)C3=O)cc2)cc1` (repeat unit), the glass transition temperature turned out to be 123.00 °C.

`*C(=O)Nc1ccc(Cc2ccc(NC(=O)c3ccc4c(c3)C(=O)N(c3ccc(-c5sc(-c6ccc(N7C(=O)c8ccc(*)cc8C7=O)cc6)c(-c6ccccc6)c5-c5ccccc5)cc3)C4=O)cc2)cc1` (repeat unit) had a glass transition temperature of 253.00 °C.

`*C(=O)Nc1ccc(N2C(=O)CC(N3C(=O)c4ccc(*)cc4C3=O)C2=O)cc1` (repeat unit) gave a glass transition temperature of 120.00 °C.

As to `*C(=O)Nc1ccc(NC(=O)c2ccc3[nH]c(-c4cc(-c5nc6cc(*)ccc6[nH]5)cc(N5C(=O)c6ccccc6C5=O)c4)nc3c2)cc1` (repeat unit), the glass transition temperature came out at 295.00 °C.

`*C(=O)Nc1ccc(NC(=O)c2ccc3c(c2)C(=O)N(c2ccc(NC(=O)Nc4ccc(N5C(=O)c6ccc(*)cc6C5=O)cc4)cc2)C3=O)cc1` (repeat unit): the glass transition temperature was 216.00 °C.

As to `*C(=O)Nc1ccc(NC(=O)c2ccc3c(c2)C(=O)N(c2ccc(Oc4cccc5c(N6C(=O)c7ccc(*)cc7C6=O)cccc45)cc2)C3=O)cc1` (repeat unit), the glass transition temperature worked out at 307.00 °C.

`*C(=O)Nc1ccc(NC(=O)c2ccc3c(c2)C(=O)N(c2cccc(P(=O)(c4ccccc4)c4cccc(N5C(=O)c6ccc(*)cc6C5=O)c4)c2)C3=O)cc1` (repeat unit): the glass transition temperature turned out to be 204.00 °C.

`*C(=O)Nc1ccc(Oc2ccc(-c3ccc(Oc4ccc(NC(=O)c5ccc6c(c5)C(=O)N(c5ccc(Oc7ccc(S(=O)(=O)c8ccc(Oc9ccc(N%10C(=O)c%11ccc(*)cc%11C%10=O)cc9)cc8)cc7)cc5)C6=O)cc4)cc3)cc2)cc1` (repeat unit) returned a glass transition temperature of 267.00 °C.

As for `*C(=O)Nc1ccc(Oc2ccc(NC(=O)c3ccc4c(c3)C(=O)N(c3ccc(NC(=O)Nc5ccc(N6C(=O)c7ccc(*)cc7C6=O)cc5)cc3)C4=O)cc2)cc1` (repeat unit), the glass transition temperature was found to be 205.00 °C.

Consider `*C(=O)Nc1ccc(S(=O)(=O)c2ccc(NC(=O)c3ccc4c(c3)C(=O)N(c3ccc(NC(=O)Nc5ccc(N6C(=O)c7ccc(*)cc7C6=O)cc5)cc3)C4=O)cc2)cc1` (repeat unit), for which the glass transition temperature is 205.00 °C.

For the molecule `*C(=O)Nc1ccc2c(c1)Cc1cc(NC(=O)c3ccc4c(c3)C(=O)N(c3ccc(NC(=O)Nc5ccc(N6C(=O)c7ccc(*)cc7C6=O)cc5)cc3)C4=O)ccc1-2` (repeat unit), the glass transition temperature is 224.00 °C.

`*CCCCCCCCOC(=O)Nc1ccc(Cc2ccc(NC(=O)O*)cc2)cc1` (repeat unit) had a glass transition temperature of 79.00 °C.

With `*CCCCCOc1ccc(NC(=O)c2cccc(C(=O)Nc3ccc(O*)cc3)c2)cc1` (repeat unit), the glass transition temperature was determined as 155.00 °C.

In turn, `*CCCCOC(=O)Nc1ccc(Cc2ccc(NC(=O)O*)cc2)cc1` (repeat unit) returned a glass transition temperature of 109.00 °C.

Regarding `*CCCOC(=O)Nc1ccc(Cc2ccc(NC(=O)O*)cc2)cc1` (repeat unit), the glass transition temperature is 119.00 °C.

`*CCN(CCOC(=O)Nc1ccc(Cc2ccc(NC(=O)O*)cc2)cc1)c1ccc(/N=N/c2ccc([N+](=O)[O-])cc2)cc1` (repeat unit) yielded a glass transition temperature of 136.40 °C.

With `*CCN(CCOC(=O)Nc1ccc(Cc2ccc(NC(=O)O*)cc2)cc1)c1ccccc1` (repeat unit), the glass transition temperature came to 31.90 °C.

Molecule `*CCOC(=O)Nc1ccc(Cc2ccc(NC(=O)OCCOc3ccc(O*)cc3)cc2)cc1` (repeat unit) returned a glass transition temperature of 98.00 °C.

`*CCOCCOc1ccc(NC(=O)c2cccc(C(=O)Nc3ccc(O*)cc3)c2)cc1` (repeat unit): the glass transition temperature amounted to 155.00 °C.

Molecule `*Nc1cc(NC(=O)Nc2ccc(NC(*)=O)cc2)cc(C(=O)Nc2ccc3c(c2)C(=O)c2ccccc2C3=O)c1` (repeat unit) showed a glass transition temperature of 184.00 °C.

Molecule `*Nc1cc(NC(=O)Nc2ccc(NC(*)=O)cc2)cc(C(=O)Nc2cccc3c2C(=O)c2ccccc2C3=O)c1` (repeat unit) showed a glass transition temperature of 190.00 °C.

As for `*Nc1ccc(Cc2ccc(NC(=O)Nc3ccccc3CCc3ccc(NC(*)=O)cc3)cc2)cc1` (repeat unit), the glass transition temperature was found to be 217.00 °C.

Regarding `*Nc1ccc(Cc2ccc(NC(=O)c3cc(C(*)=O)cc(N4C(=O)C5C6C=CC(C6)C5C4=O)c3)cc2)cc1` (repeat unit), the glass transition temperature worked out at 303.00 °C.

On to `*Nc1ccc(Cc2ccc(NC(=O)c3cc(C(*)=O)cc(N4C(=O)C=CC4=O)c3)cc2)cc1` (repeat unit), for which the glass transition temperature is 287.00 °C.

As to `*Nc1ccc(Cc2ccc(NC(=O)c3ccc(P(=O)(c4ccccc4)c4ccc(C(*)=O)cc4)cc3)cc2)cc1` (repeat unit), the glass transition temperature came to 307.00 °C.

As for `*Nc1ccc(NC(=O)c2ccc(NC(=O)c3ccc(P(=O)(c4ccccc4)c4ccc(C(*)=O)cc4)cc3)cc2)cc1` (repeat unit), the glass transition temperature was determined as 243.00 °C.

The molecule `*Nc1ccc(NC(=O)c2cccc(C(*)=O)c2)cc1` (repeat unit) registered a glass transition temperature of 295.00 °C.

Regarding `*Nc1ccc(NC(=O)c2cccc(C(=O)c3ccc(C(*)=O)cc3)c2)cc1` (repeat unit), the glass transition temperature is 257.50 °C.

For `*Nc1ccccc1CCc1ccc(NC(*)=O)cc1` (repeat unit), the glass transition temperature was found to be 198.00 °C.

In turn, `*OC(=O)Nc1ccc(Cc2ccc(NC(=O)OC3CC4CC(*)CC(C3)O4)cc2)cc1` (repeat unit) gave a glass transition temperature of 200.00 °C.

Turning to `*OC(COC(=O)Nc1ccc(Cc2ccc(NC(*)=O)cc2)cc1)c1ccco1` (repeat unit), the glass transition temperature came to 40.00 °C.

`*OP(=O)(Oc1ccc(NC(=O)Oc2ccc(-c3ccc(OC(=O)Nc4ccc(*)cc4)cc3)cc2)cc1)c1ccccc1` (repeat unit) yielded a glass transition temperature of 34.00 °C.

Take `*Oc1ccc(/N=C/C=N/c2ccc(OC(=O)Nc3ccc(Cc4ccc(NC(*)=O)cc4)cc3)cc2)cc1` (repeat unit): the glass transition temperature was found to be 133.00 °C.

Molecule `*Oc1ccc(NC(=O)c2ccc([Si](c3ccccc3)(c3ccccc3)c3ccc(C(*)=O)cc3)cc2)cc1` (repeat unit) registered a glass transition temperature of 235.00 °C.

With `*Oc1ccc(NC(=O)c2cccc(C(=O)Nc3ccc(OC4COC5C(*)COC45)cc3)c2)cc1` (repeat unit), the glass transition temperature came to 218.00 °C.

Take `*Oc1ccc(Oc2ccc(C(=O)Nc3ccc(Cc4ccc(NC(=O)c5ccc(*)cc5)cc4)cc3)cc2)cc1-c1ccccc1` (repeat unit): the glass transition temperature was 218.00 °C.

Turning to `*c1ccc(C(=O)Nc2ccc(N3C(=O)c4ccc(-c5ccc6c(c5)C(=O)N(*)C6=O)cc4C3=O)cc2)cc1` (repeat unit), the glass transition temperature was found to be 335.00 °C.

For the molecule `*c1ccc(C(=O)c2ccc(C(=O)c3ccc(Oc4ccc(-c5nn(*)c(=O)c6ccccc56)c(F)c4)cc3)cc2)cc1` (repeat unit), the glass transition temperature is 287.00 °C.

Molecule `*c1ccc(Cc2ccc(N3C(=O)CC(Nc4ccc(N(c5ccc(NC6CC(=O)N(*)C6=O)cc5)c5ccc([N+](=O)[O-])cc5)cc4)C3=O)cc2)cc1` (repeat unit) displayed a glass transition temperature of 276.00 °C.

Molecule `*c1ccc(Cc2ccc(NC(=O)c3ccc(Oc4ccc5c(c4)C(=O)N(*)C5=O)cc3)cc2)cc1` (repeat unit) displayed a glass transition temperature of 250.00 °C.

In the case of `*c1ccc(Cc2ccc(NC(=O)c3ccc(Oc4cccc5c4C(=O)N(*)C5=O)cc3)cc2)cc1` (repeat unit), the glass transition temperature was determined as 258.00 °C.

For `*c1ccc(NC(=O)Nc2ccc(NC(=O)Nc3ccc(-c4nc(-c5ccc(-c6nc(-c7ccc([N+](=O)[O-])cc7)c(-c7ccc([N+](=O)[O-])cc7)[nH]6)cc5)[nH]c4*)cc3)cc2)cc1` (repeat unit), the glass transition temperature was found to be 272.00 °C.

`*c1ccc(NC(=O)Nc2ccc(NC(=O)Nc3ccc(-c4nc(-c5ccc([N+](=O)[O-])cc5)[nH]c4*)cc3)cc2)cc1` (repeat unit): the glass transition temperature amounted to 292.00 °C.

With `*c1ccc2c(c1)C(=O)N(c1cccc(C(=O)Nc3ccc(NC(=O)c4ccc(NC(=O)c5cccc(N6C(=O)c7ccc(C(*)(C(F)(F)F)C(F)(F)F)cc7C6=O)c5)cc4)cc3)c1)C2=O` (repeat unit), the glass transition temperature is 328.00 °C.

`*c1ccc2c(c1)C(=O)N(c1cccc(C(=O)Nc3ccc(NC(=O)c4cccc(N5C(=O)c6ccc(C(*)(C(F)(F)F)C(F)(F)F)cc6C5=O)c4)cc3)c1)C2=O` (repeat unit): the glass transition temperature stood at 311.00 °C.

Regarding `*c1cccc(C(=O)Nc2ccc(Cc3ccc(N4C(=O)c5ccc(S(=O)(=O)c6ccc7c(c6)C(=O)N(c6ccc(Cc8ccc(NC(=O)c9cccc(-c%10nc%11cc(-c%12ccc%13[nH]c(*)nc%13c%12)ccc%11[nH]%10)c9)cc8)cc6)C7=O)cc5C4=O)cc3)cc2)c1` (repeat unit), the glass transition temperature came out at 270.00 °C.

Molecule `*c1cccc(C(=O)Nc2ccc(NC(=O)c3cccc(N4C(=O)c5ccc(-c6cccc7c6C(=O)N(*)C7=O)cc5C4=O)c3)cc2)c1` (repeat unit) yielded a glass transition temperature of 328.00 °C.

These data come from the PolyMetriX glass transition set.
